test system: bile acid transport in the ileum and the fecal excretion of bile acids; assay: ED200 excretion: fecal excretion of 14C-taurocholate in the rat after oral administration twice daily; type: in vivo; settings: Rattus norvegicus, po, 24 h, twice daily for one day, male Wistar rats; dose which increases fecal excretion of 14C taurocholic acid to 200% of control; diastereomer mixture unless stated
Protocol: The biological testing of the compounds according to the invention was carried out by determination of the ED200 excretion. This testing investigates the action of the compounds according to the invention on the bile acid transport in the ileum and the fecal excretion of bile acids in the rat after oral administration twice daily. The diastereomer mixtures of the compounds were tested.
The following recipe was used for the formulation of an aqueous solution:
the substances were dissolved in adequate volumes of an aqueous solution comprising Solutol (=polyethylene glycol […] hydroxystearate; BASF, Ludwigshafen, Germany; Batch No. 1763), so that a final concentration of 5% of Solutol is present in the aqueous solution. The solutions/suspensions were administered orally in a dose of 5 ml/kg. 2) Experimental Conditions
Male Wistar rats (Kastengrund, Hoechst AG, weight range 250–350 g) were kept in groups of 6 animals each and received a standard feed mixture (Altromin, Lage, Germany) from 10 days before the start of treatment (day 1) with a reversed day/night rhythm (4.00–16.00 dark, 16.00–4.00 light). Three days before the start of the experiment (day 0), the animals were divided into groups of 4 animals each.
After intravenous or subcutaneous administration of 5 μCi of ^14C-taurocholate per rat (day 0), the vehicles or test substances were given at 7.00–8.00 and at 15.00–16.00 on the following day (day 1) (treatment for one day).
Stool samples for the analysis of C-taurocholate were taken every 24 hours directly after the administration of the morning dose. The feces were weighed, stored at −18° C. and later suspended in 100 ml of demineralized water and homogenized (Ultra Turrax, Janke & Kunkel, IKA-Werk). Aliquot parts (0.5 g) were weighed and combusted on combustion lids (Combusto Cones, Canberra Packard) in a combustion apparatus (Tri Carb® 307 combuster Canberra Packard GmbH, Frankfurt am Main, Germany). The resulting ^14CO2 was absorbed with Carbo-Sorb® (Canberra Packard). The following ^14C radioactivity measurements were determined after addition of the scintillator (Perma-Fluor complete scintillation cocktail No. 6013187, Packard) to the samples with the aid of liquid scintillation counting (LSC). The fecal excretion of ^14C-taurocholic acid was calculated as a cumulative and/or percentage residual radioactivity (see below).
The fecal excretion of ^14C-TCA was determined in combusted aliquot parts of the stool samples taken at 24-hour intervals, calculated as the “cumulative percentage” of the administered activity and expressed as a % of the residual activity (=remaining activity, i.e. administered activity minus the already excreted activity). For the calculation of the dose-response curves, the excretion of ^14C taurocholic acid was expressed as a percentage proportion of the corresponding values of the control group (treated with vehicle). The ED200, i.e. the dose which increases the fecal excretion of ^14C taurocholic acid to 200% of the control group, is calculated from a sigmoid or linear dose-response curve by interpolation. The calculated ED200 corresponds to a dose which doubles the fecal excretion of bile acids.

Going from CCCC[C@]1(CC)CS(=O)(=O)c2ccc(N(C)C)cc2[C@@H](c2cccc(N)c2)[C@H]1O [Comparison Example 1, reference compound] to CCCC[C@]1(CC)CS(=O)(=O)c2ccc(N(C)C)cc2[C@@H](c2cccc(NC(=O)CCCCBr)c2)[C@H]1O [Comparison Example 2, reference compound], the ED (200% of control) rises from 0.8 mg/kg/day to 1 mg/kg/day.

Compared with CCCC[C@]1(CC)CS(=O)(=O)c2ccc(N(C)C)cc2[C@@H](c2cccc(NC(=O)CCCC[N+](CC)(CC)CC)c2)[C@H]1O [Comparison Example 3, reference compound], CCCC[C@]1(CC)CS(=O)(=O)c2ccc(N(C)C)cc2[C@@H](c2cccc(NC(=O)CCCCNC(=O)[C@H](O)[C@@H](O)[C@H](O)[C@H](O)CO)c2)[C@H]1O [Example 9] is lower in ED (200% of control): 0.9 mg/kg/day for the first, 0.007 mg/kg/day for the second.

Compared with CCCC[C@]1(CC)CS(=O)(=O)c2ccc(N(C)C)cc2[C@@H](c2cccc(NC(=O)[C@H](O)[C@@H](O)[C@H](O)[C@H](O)CO)c2)[C@H]1O [Example 1], CCCCC1(CCCC)CS(=O)(=O)c2ccc(N(C)C)cc2[C@@H](c2cccc(NC(=O)[C@H](O)[C@@H](O)[C@H](O)[C@H](O)CO)c2)[C@H]1O [Example 7] is higher in ED (200% of control): 0.009 mg/kg/day for the first, 0.04 mg/kg/day for the second.

Going from CCCC[C@]1(CC)CS(=O)(=O)c2ccc(N(C)C)cc2[C@@H](c2cccc(NC(=O)[C@H](OC(C)=O)[C@@H](OC(C)=O)[C@H](OC(C)=O)[C@@H](COC(C)=O)OC(C)=O)c2)[C@H]1O [Example 2] to CCCCC1(CCCC)CS(=O)(=O)c2ccc(N(C)C)cc2[C@@H](c2cccc(NC(=O)[C@H](OC(C)=O)[C@@H](OC(C)=O)[C@H](OC(C)=O)[C@@H](COC(C)=O)OC(C)=O)c2)[C@H]1O [Example 6], the ED (200% of control) rises from 0.008 mg/kg/day to 0.04 mg/kg/day.

Going from CCCC[C@]1(CC)CS(=O)(=O)c2ccc(N(C)C)cc2[C@@H](c2cccc(NC(=O)CCCCNC(=O)[C@H](OC(C)=O)[C@@H](OC(C)=O)[C@H](OC(C)=O)[C@@H](COC(C)=O)OC(C)=O)c2)[C@H]1O [Example 8] to CCCC[C@]1(CC)CS(=O)(=O)c2ccc(N(C)C)cc2[C@@H](c2cccc(NC(=O)CCCCN(C[C@H](OC(C)=O)[C@@H](OC(C)=O)[C@H](OC(C)=O)[C@@H](COC(C)=O)OC(C)=O)C(C)=O)c2)[C@H]1O [Example 10], the ED (200% of control) rises from 0.007 mg/kg/day to 0.04 mg/kg/day.

same assay, conditions: p.o., twice daily for one day, male Wistar rats; dose which increases fecal excretion of 14C taurocholic acid to 200% of control; diastereomer mixture unless stated

For CCCC[C@]1(CC)CS(=O)(=O)c2ccc(N(C)C)cc2[C@@H](c2cccc(NC(=O)CCCCNC[C@H](O)[C@@H](O)[C@H](O)[C@H](O)CO)c2)[C@H]1O [3 (pure structure 11a)], the ED200 excretion was 0.008 mg/kg/day.
Work on CCCC[C@]1(CC)CS(=O)(=O)c2ccc(N(C)C)cc2[C@@H](c2cccc(NC(=O)CCCCNC[C@H](O)[C@@H](O)[C@H](O)[C@H](O)CO)c2)[C@H]1O [Example 3] yielded an ED200 excretion of 0.04 mg/kg/day.

Source: patent US7019023B2, “Benzothiepine 1, 1-dioxide derivatives, a process for their preparation, pharmaceuticals comprising these compounds, and their use” (Aventis Pharma Deutschland GmbH, priority 1998, dated 2006)
